What was measured:
Type in all cases: in vivo
[1] = tested on: pigweed (Amaranthus retroflexus); test: Test A preemergence; details: Amaranthus retroflexus, pre-emergence, 240 h
[2] = tested on: ragweed (common ragweed, Ambrosia elatior); test: Test A preemergence; details: Ambrosia artemisiifolia, pre-emergence, 240 h
Procedure, shortened: (§1)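 Seeded soil received test chemicals as a preemergence directed spray, and seedlings at one to two leaves, 2–10 cm tall, received them postemergence, in a non-phytotoxic, surfactant-containing solvent mixture. Pots were held in a greenhouse for approximately 10 d, then rated for injury from 0, no effect, to 100, complete control.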

[3] = tested on: ryegrass, Italian (Italian ryegrass, Lolium multiflorum); test: Test A preemergence; details: Lolium multiflorum, pre-emergence, 240 h
Procedure, shortened: as §1

[4] = tested on: barnyardgrass (Echinochloa crus-galli); test: Test A preemergence; details: Echinochloa crus-galli, pre-emergence, 240 h
Procedure, shortened: as §1

[5] = tested on: giant foxtail (Setaria faberii); test: Test A preemergence; details: Setaria faberi, pre-emergence, 240 h
Procedure, shortened: as §1

Kochia (Kochia scoparia) [6] = test: Test A preemergence; details: Bassia scoparia, pre-emergence, 240 h
Procedure, shortened: as §1

[7] = tested on: sedge, umbrella (small-flower umbrella sedge, Cyperus difformis); test: Test B flooded paddy test; details: Cyperus difformis, 250 g ai/ha, Flood; 0 to 100 scale where 0 is no effect and 100 is complete control; read-out: Sedge, Umbrella plant response rating
Procedure, shortened: (§2)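 Plants at 2-leaf stage flooded to 3 cm above soil, with compounds applied directly to paddy water and that depth maintained. Plants kept in greenhouse 13–15 d. Visual rating versus controls on a 0 (no effect) to 100 (complete control) scale.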

[8] = tested on: ducksalad (Heteranthera limosa); test: Test B flooded paddy test; details: Heteranthera limosa, 250 g ai/ha, Flood; 0 to 100 scale where 0 is no effect and 100 is complete control; read-out: Ducksalad plant response rating
Procedure, shortened: as §2

rice (Oryra sativa) = test: Test B flooded paddy test; details: Oryza sativa, 250 g ai/ha, Flood; 0 to 100 scale where 0 is no effect and 100 is complete control; read-out: Rice plant response rating
Procedure, shortened: as §2

[9] = tested on: barnyardgrass (Echinochloa crus-galli); test: Test B flooded paddy test; details: Echinochloa crus-galli, 250 g ai/ha, Flood; 0 to 100 scale where 0 is no effect and 100 is complete control; read-out: Barnyardgrass plant response rating
Procedure, shortened: as §2

[10] = tested on: pigweed (Amaranthus retroflexus); test: Test A postemergence; details: Amaranthus retroflexus, post-emergence, 240 h, read-out: Plant response rating, Pigweed
Procedure, shortened: as §1

[11] = tested on: ragweed (common ragweed, Ambrosia elatior); test: Test A postemergence; details: Ambrosia artemisiifolia, post-emergence, 240 h, read-out: Plant response rating, Ragweed
Procedure, shortened: as §1

corn (Zea mays) = test: Test A postemergence; details: Zea mays, post-emergence, 240 h
Procedure, shortened: as §1

[12] = tested on: Galium (catchweed bedstraw, Galium aparine); test: Test A postemergence; details: Galium, post-emergence, 240 h, read-out: Plant response rating, Galium
Procedure, shortened: as §1

[13] = tested on: ryegrass, Italian (Italian ryegrass, Lolium multiflorum); test: Test A postemergence; details: Lolium multiflorum, post-emergence, 240 h, read-out: Plant response rating, Ryegrass, Italian
Procedure, shortened: as §1

[14] = tested on: blackgrass (Alopecurus myosuroides); test: Test A postemergence; details: Alopecurus myosuroides, post-emergence, 240 h, read-out: Plant response rating, Blackgrass
Procedure, shortened: as §1

[15] = tested on: barnyardgrass (Echinochloa crus-galli); test: Test A postemergence; details: Echinochloa crus-galli, post-emergence, 240 h, read-out: Plant response rating, Barnyardgrass
Procedure, shortened: as §1

[16] = tested on: giant foxtail (Setaria faberii); test: Test A postemergence; details: Setaria faberi, post-emergence, 240 h, read-out: Plant response rating, Foxtail, Giant
Procedure, shortened: as §1

Kochia (Kochia scoparia) [17] = test: Test A postemergence; details: Bassia scoparia, post-emergence, 240 h, read-out: Plant response rating, Kochia
Procedure, shortened: as §1

[18] = tested on: wheat (Triticum aestivum); test: Test A postemergence; details: Triticum aestivum, post-emergence, 240 h, read-out: Plant response rating, Wheat
Procedure, shortened: as §1

[19] = 125 g ai/ha, Postemergence, visual injury after approximately 10 d, 0 to 100 scale where 0 is no effect and 100 is complete control
[20] = 500 g ai/ha, postemergence, visual injury, 0 to 100 scale (0 no effect, 100 complete control), approx. 10 d

`Cc1cc([C@H]2CN(C)C(=O)[C@@H]2C(=O)Nc2ccccc2F)cc(C)c1Br` [Compound 1023] gave a pest or weed control at 125 g/ha ([1]; 125 g ai/ha, Preemergence, visual injury rating after approximately 10 d, read-out: Pigweed plant response rating (0 to 100 scale, 0 is no effect, 100 is complete control)) of 30%, a pest or weed control at 500 g/ha ([1]; 500 g ai/ha, preemergence, visual injury rating about 10 d after treatment, 0 to 100 scale (0 no effect, 100 complete control), read-out: Pigweed plant response rating) of 30% and a pest or weed control at 125 g/ha ([2]; 125 g ai/ha, Preemergence, visual injury rating after approximately 10 d, read-out: Ragweed plant response rating (0 to 100 scale, 0 is no effect, 100 is complete control)) of 0%. It also gave a pest or weed control at 500 g/ha ([2]; 500 g ai/ha, preemergence, visual injury rating about 10 d after treatment, 0 to 100 scale (0 no effect, 100 complete control), read-out: Ragweed plant response rating) of 40%, a pest or weed control at 125 g/ha ([3]; 125 g ai/ha, Preemergence, visual injury rating after approximately 10 d, read-out: Ryegrass, Italian plant response rating (0 to 100 scale, 0 is no effect, 100 is complete control)) of 50% and a pest or weed control at 500 g/ha ([3]; 500 g ai/ha, preemergence, visual injury rating about 10 d after treatment, 0 to 100 scale (0 no effect, 100 complete control), read-out: Ryegrass, Italian plant response rating) of 70%. It also gave a pest or weed control at 125 g/ha ([4]; 125 g ai/ha, Preemergence, visual injury rating after approximately 10 d, read-out: Barnyardgrass plant response rating (0 to 100 scale, 0 is no effect, 100 is complete control)) of 90%, a pest or weed control at 500 g/ha ([4]; 500 g ai/ha, preemergence, visual injury rating about 10 d after treatment, 0 to 100 scale (0 no effect, 100 complete control), read-out: Barnyardgrass plant response rating) of 90% and a pest or weed control at 125 g/ha ([5]; 125 g ai/ha, Preemergence, visual injury rating after approximately 10 d, read-out: Foxtail, Giant plant response rating (0 to 100 scale, 0 is no effect, 100 is complete control)) of 90%. It also gave a pest or weed control at 500 g/ha ([5]; 500 g ai/ha, preemergence, visual injury rating about 10 d after treatment, 0 to 100 scale (0 no effect, 100 complete control), read-out: Foxtail, Giant plant response rating) of 90%, a pest or weed control at 125 g/ha (Kochia (Kochia scoparia) [6]; 125 g ai/ha, Preemergence, visual injury rating after approximately 10 d, read-out: Kochia plant response rating (0 to 100 scale, 0 is no effect, 100 is complete control)) of 0% and a pest or weed control at 500 g/ha (Kochia (Kochia scoparia) [6]; 500 g ai/ha, preemergence, visual injury rating about 10 d after treatment, 0 to 100 scale (0 no effect, 100 complete control), read-out: Kochia plant response rating) of 0%. It also gave a pest or weed control at 250 g/ha [7] of 0%, a pest or weed control at 250 g/ha [8] of 65% and a pest or weed control at 250 g/ha (rice (Oryra sativa)) of 20%. It also gave a pest or weed control at 250 g/ha [9] of 40%, a pest or weed control at 125 g/ha [10, 19] of 0% and a pest or weed control at 500 g/ha [10, 20] of 30%. For the same molecule, the pest or weed control at 125 g/ha [11, 19] was 0%, the pest or weed control at 500 g/ha [11, 20] was 0% and the Corn plant response rating (crop injury, 0 = no effect, 100 = complete kill) at 125 g/ha (corn (Zea mays); [19]) was 0%. For the same molecule, the Corn plant response rating (crop injury, 0 = no effect, 100 = complete kill) at 500 g/ha (corn (Zea mays); [20]) was 50%, the pest or weed control at 125 g/ha [12, 19] was 60% and the pest or weed control at 500 g/ha [12, 20] was 60%. The pest or weed control at 125 g/ha [13, 19] was 30%, the pest or weed control at 500 g/ha [13, 20] was 30% and the pest or weed control at 125 g/ha [14, 19] was 0%. It also gave a pest or weed control at 500 g/ha [14, 20] of 20%, a pest or weed control at 125 g/ha [15, 19] of 90% and a pest or weed control at 500 g/ha [15, 20] of 90%. The pest or weed control at 125 g/ha [16, 19] was 70%, the pest or weed control at 500 g/ha [16, 20] was 90% and the pest or weed control at 125 g/ha (Kochia (Kochia scoparia) [17]; [19]) was 50%. It also gave a pest or weed control at 500 g/ha (Kochia (Kochia scoparia) [17]; [20]) of 50%, a plant injury at 125 g/ha [18, 19] of 0% and a plant injury at 500 g/ha [18, 20] of 20%.

Source: patent US12077503B2, “Substituted cyclic amides and their use as herbicides” (FMC CORPORATION, priority 2015, dated 2024)
